Test results: ChEMBL document CHEMBL1821662 (Bioorg Med Chem Lett, 2011)

Experiments:
HCT-116 [1] = assay: Antiproliferative activity against human HCT116 cells; assay type: functional, cell-based
Aurora kinase A = target: T1, Aurora kinase A (Homo sapiens, UniProt O14965); assay: Binding affinity to Aurora A kinase catalytic domain by competitive binding assay
T1 sequence (O14965 whole entry): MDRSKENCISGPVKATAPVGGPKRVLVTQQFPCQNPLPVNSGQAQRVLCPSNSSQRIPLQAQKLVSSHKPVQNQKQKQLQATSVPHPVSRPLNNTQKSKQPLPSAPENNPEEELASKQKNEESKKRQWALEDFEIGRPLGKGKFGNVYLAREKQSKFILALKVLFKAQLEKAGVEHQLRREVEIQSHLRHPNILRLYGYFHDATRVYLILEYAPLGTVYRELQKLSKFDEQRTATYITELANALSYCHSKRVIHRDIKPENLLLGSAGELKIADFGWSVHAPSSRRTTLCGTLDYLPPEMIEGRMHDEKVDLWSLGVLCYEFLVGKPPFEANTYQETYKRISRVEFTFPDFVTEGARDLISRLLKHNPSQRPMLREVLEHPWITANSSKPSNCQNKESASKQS

Aurora kinase B [2] = target: T2, Aurora kinase B (Homo sapiens, UniProt Q96GD4); assay: Binding affinity to Aurora B kinase catalytic domain by competitive binding assay
T2 sequence (Q96GD4 whole entry, the tested form may be a part): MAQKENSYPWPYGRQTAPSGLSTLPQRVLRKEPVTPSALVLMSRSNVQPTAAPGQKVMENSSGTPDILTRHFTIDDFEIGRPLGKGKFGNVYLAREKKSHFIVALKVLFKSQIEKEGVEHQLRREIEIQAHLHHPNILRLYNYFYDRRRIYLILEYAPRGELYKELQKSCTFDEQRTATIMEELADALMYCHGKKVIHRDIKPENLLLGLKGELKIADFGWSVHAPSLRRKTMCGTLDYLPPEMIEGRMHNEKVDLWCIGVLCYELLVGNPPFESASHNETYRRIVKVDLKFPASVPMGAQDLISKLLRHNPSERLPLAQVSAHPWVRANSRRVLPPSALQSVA

Aurora kinase B [3] = target: T2, Aurora kinase B; assay: Inhibition of Aurora B kinase assessed as reduction in histone H3 phosphorylation in human HCT116 cells; assay type: cell-based, HCT-116
Aurora kinase C = target: T3, Aurora kinase C (Homo sapiens, UniProt Q9UQB9); assay: Binding affinity to Aurora C kinase catalytic domain by competitive binding assay
T3 sequence (Q9UQB9 whole entry): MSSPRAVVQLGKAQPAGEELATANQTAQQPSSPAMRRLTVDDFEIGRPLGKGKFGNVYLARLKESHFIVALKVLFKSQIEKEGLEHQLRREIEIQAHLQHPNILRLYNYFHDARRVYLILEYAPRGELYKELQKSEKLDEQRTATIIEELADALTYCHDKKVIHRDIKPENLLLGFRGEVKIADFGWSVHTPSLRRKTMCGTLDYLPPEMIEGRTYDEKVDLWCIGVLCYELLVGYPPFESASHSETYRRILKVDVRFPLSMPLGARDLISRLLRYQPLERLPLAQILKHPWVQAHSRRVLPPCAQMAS

[4] = Clearance in Sprague-Dawley rat at 1 mg/kg, iv; assay type: ADME, organism-based; design: dose 1 mg/kg, route intravenous; details: in vivo
[5] = Volume of distribution in Sprague-Dawley rat at 1 mg/kg, iv; assay type: ADME, organism-based; design: dose 1 mg/kg, route intravenous; details: in vivo
[6] = Half life in Sprague-Dawley rat at 1 mg/kg, iv; assay type: ADME, organism-based; design: dose 1 mg/kg, route intravenous; details: in vivo
[7] = AUC in Sprague-Dawley rat at 1 mg/kg, iv; assay type: ADME, organism-based; design: dose 1 mg/kg, route intravenous; details: plasma
[8] = AUC in SCID mouse at 60 mg/kg, ip; assay type: ADME, organism-based; design: dose 60 mg/kg, route intraperitoneal; details: plasma
HCT-116 [9] = assay: Antitumor activity against human HCT116 cells xenografted in nude mouse assessed as tumor suppression dose administered intraperitoneally twice daily; assay type: functional, cell-based
Mus musculus = assay: Toxicity in nude mouse xenografted with human HCT116 cells assessed as body weight loss at 37.5 mg/kg, ip BID for 8 days; assay type: organism-based, HCT-116; design: dose 37.5 mg/kg, route intraperitoneal; details: in vivo, 192 h

Structure (SMILES)	IC50 (HCT-116 [1]) [µM]	Kd (Aurora kinase A) [µM]	Kd (Aurora kinase B [2]) [µM]	IC50 (Aurora kinase B [3]) [µM]	Kd (Aurora kinase C) [µM]	clearance [4] [mL/min/kg]	Vd [5] [L/kg]	half-life [6] [h]	AUC [7] [µM·h]	AUC [8] [µM·h]	Activity (HCT-116 [9])	Activity (Mus musculus) [%]
Cc1cc(Nc2cc(N3CCN(C)CC3)nc(Sc3ccc(NC(=O)C4CC4)cc3)n2)n[nH]1 [TOZASERTIB]	0.028											
Cc1cc(Nc2nc(Sc3ccc(NC(=O)CN4C[C@H](O)C[C@H]4CO)cc3)nn3cccc23)n[nH]1	0.596	0.058	0.015	0.637								
Cc1cc(Nc2nc(Sc3ccc(NC(=O)CN4C[C@H](F)C[C@H]4CO)cc3)nn3cccc23)n[nH]1	0.104	0.015	0.009	0.091								
Cc1cc(Nc2nc(Sc3ccc(NC(=O)CN4C[C@H](OCC5CC5)[C@@H](O)C4)cc3)nn3cccc23)n[nH]1	0.01	0.007	0.002	0.023								
Cc1cc(Nc2nc(Sc3ccc(NC(=O)CN4C[C@H](N)C[C@H]4CO)cc3)nn3cccc23)n[nH]1	4.7	0.381	0.144	15								
Cc1cc(Nc2nc(Sc3ccc(NC(=O)CN4C[C@H](OC(C)(C)C)C[C@H]4CO)cc3)nn3cccc23)n[nH]1	0.008	0.009	0.008	0.015	0.002	52.2	9.77	15.4	0.581			
Cc1cc(Nc2nc(Sc3ccc(NC(=O)CN4C[C@H](Oc5ccc(F)cc5)[C@@H](O)C4)cc3)nn3cccc23)n[nH]1	0.005	0.015	0.008	0.044		25.2	2.93	3.36	1.17	47.5	Dose-dependent effect	> 20
Cc1cc(Nc2nc(Sc3ccc(NC(=O)CN4C[C@H](Oc5cc(F)cc(F)c5)[C@@H](O)C4)cc3)nn3cccc23)n[nH]1	0.007	0.026	0.021	0.051								
Cc1cc(Nc2nc(Sc3ccc(NC(=O)CN4C[C@@H](F)C[C@H]4CO)cc3)nn3cccc23)n[nH]1	0.025	0.008	0.004	0.028								
Cc1cc(Nc2nc(Sc3ccc(NC(=O)CN4C[C@H](OC5CCCC5)[C@@H](O)C4)cc3)nn3cccc23)n[nH]1	0.006	0.011	0.004	0.023								
Cc1cc(Nc2nc(Sc3ccc(NC(=O)C4CC4)cc3)nn3cc(NC(=O)N4CCN(C)CC4)cc23)n[nH]1	0.075	0.007	0.004	0.19	0.005	53.3	5.86	8.66	0.757			
Cc1cc(Nc2nc(Sc3ccc(NC(=O)CN4CCC[C@H]4CO)cc3)nn3cccc23)n[nH]1	0.148	0.014	0.004	0.146	0.001							
Cc1cc(Nc2nc(Sc3ccc(NC(=O)C4CC4)cc3)nn3cccc23)n[nH]1	0.345	0.012	0.02	0.431	0.004	28.5	2.15	10.8	2.34			
Cc1cc(Nc2nc(Sc3ccc(NC(=O)CN4C[C@@H](O)[C@@H](Oc5ccc(F)cc5)C4)cc3)nn3cccc23)n[nH]1	0.009	0.007	0.008	0.084								
CCC(C)(C)O[C@H]1CN(CC(=O)Nc2ccc(Sc3nc(Nc4cc(C)[nH]n4)c4cccn4n3)cc2)C[C@@H]1O	0.009	0.008	0.004	0.028								
Cc1cc(Nc2nc(Sc3ccc(NC(=O)CN4C[C@H](OC(C)(C)C)[C@@H](O)C4)cc3)nn3cccc23)n[nH]1	0.004	0.012	0.005	0.016		45	18.3	11.2	0.644			
Cc1cc(Nc2nc(Sc3ccc(NC(=O)CN4C[C@H](OC(C)(C)C(F)(F)F)[C@@H](O)C4)cc3)nn3cccc23)n[nH]1	0.009	0.006	0.004	0.027								
Cc1cc(Nc2nc(Sc3ccc(NC(=O)CN4CC(=NO)[C@@H](OC(C)(C)C)C4)cc3)nn3cccc23)n[nH]1 (mixture of isomers)	0.008	0.009	0.005	0.028								
